A word on the IC50: it is the midpoint of a concentration-inhibition curve. Higher therefore signals weaker potency.

A short description of series [1]: Gelation and stability of Abz-derived amphiphiles. In kind it is physicochemical. How it is done: A variety of Abz-derived amphiphiles were synthesized (Scheme 3-1). […] In general, mixtures of polar organic solvents with water gave the best gelation results, with only two pure organogels forming (Abz-Alloc in glycerol, and Abz-Chol in 1,4-dioxane). […] The four amphiphiles had widely different solubility and gelation properties, with each amphiphile forming at least two gels.
Gelation. To a vial containing solid amphiphile was added the appropriate solvent. The vial was sealed and heated over a heat gun (˜110° C. max) until amphiphile fully dissolved. The vial was allowed to cool undisturbed at room temperature, during which time gel formed. For all characterization gels were allowed to form for at least 45 minutes.

Series [2] can be described thus: Gelation of Asc-Pal in solvents. In kind it is physicochemical. As for the experimental part: Typically, solvents (0.2 mL) were added to a glass scintillation vial with the gelator (0.5-5 wt/vol %) and sealed with a screw cap. The vial was heated to about 60-80° C. until the gelator was completely dissolved. The vial was placed on a stable surface and allowed to cool to room temperature. Typically after 15-45 min, the solution was transitioned into a viscous gel. Gelation was considered to have occurred when no gravitational flow was observed upon inversion of the glass vial, and resulted hydrogels are injectable. Asc-Pal formed gels in water, benzene, toluene, carbon tetrachloride, and acetonitrile; while a precipitate formed in dimethylformamide and dimethylsulfoxide. Asc-Pal was soluble in chloroform and methanol.

Series [3] is described as follows: Gelation of Asc-Pal without and with dexamethasone. Format: physicochemical. The following applies: 20% ethanol in water. As for the experimental part:
Self-assembly of the amphiphiles is a delicate process that could be affected by additional agents. To understand the affect of dexamethasone, gelation of Asc-Pal has been explored in 20% ethanol in water by varying concentration of Asc-Pal (1-5% wt/v) while keeping concentration of dexamethasone (2 mg) constant. Results in Table 6-2 reveal that presence of dexamethasone facilitates the self-assembly of Asc-Pal and strengthen the gelation.

Series [4] deals with fibroblasts (NIH3T3). Briefly: Cytotoxicity of CPT encapsulated SMS self-assembled fibers, NIH3T3. In kind it is cell-based. To be noted: Mus musculus; NIH3T3 fibroblasts in culture; unit inferred. The source says:
(§1) Cytotoxicity Studies of CPT Encapsulated SMS Self-Assembled Fibers. Prior to in vivo studies, evaluation of efficacy of drug delivery systems using appropriate cell lines is an essential step. Efficacy of CPT loaded SMS self-assembled fibers were investigated using glioma cell line, G55 and control cell line fibroblast, NIH3T3. […] We hypothesize that highly proliferative glioma G55 cells secretes high concentrations of enzymes that degrade the self-assembled fibers to release CPT efficiently, whereas free form of CPT degrades in the media due to its low half-life at physiological conditions. […] Encapsulation of Camptothecin and PARP-Inhibitor (AGO14699).

In series [5] the test system is glioma cell line, G55. Kind of series: Cytotoxicity of CPT encapsulated SMS self-assembled fibers, G55. In kind it is cell-based. To be noted: G55 cells in culture.
Description: as §1

The nature of series [6]: Gelation ability and minimum gelation concentration of SMS. The following applies: for Gelation ability: concentration around 5-9%. Format: physicochemical. The source says:
MGC values of SMS have varied from 3 to 8 wt/v %.

`C=CCOC(=O)Nc1cccc(C(N)=O)c1` [Abz-Alloc]: in series [1] (glycerol), the “Gelation in pure organic solvent” value is recorded as “organogels”.

In the case of `CC(C)CCC[C@@H](C)[C@H]1CC[C@H]2[C@@H]3CC=C4CC(OC(=O)Nc5cccc(C(N)=O)c5)CC[C@]4(C)[C@H]3CC[C@]12C` (stereo partly shown) [Abz-Chol], the “Gelation in pure organic solvent” value in series [1] (1,4-dioxane) was “organogels”.

With `NC(=O)c1cccc(NC(=O)Oc2ccc([N+](=O)[O-])cc2)c1` [Abz-PNP], in series [1], the Stability of amphiphile entry was “decompose spontaneously”.

`CCCCCCCCCCCCCCCC(=O)OC[C@H](O)[C@H]1OC(=O)C(O)=C1O` [Asc-Pal, Ascorbyl palmitate]: the Gelation behaviour result in series [2] (acetonitrile) is “gels”; in series [2] (benzene), “gels”; in series [2] (carbon tetrachloride) it was “gels”; in series [2] (chloroform), “soluble”; in series [2] (dimethylformamide), “precipitate”; in series [2] (dimethylsulfoxide), “precipitate”. Also, the Gelation behaviour result is on record as “soluble” in series [2] (methanol); “gels” in series [2] (toluene); “gels” in series [2] (water, gelator 0.5-5 wt/vol %). The Gelation entry is given as “Weak” in series [3] (1% Asc-Pal, with dex (2 mg)); “Not gel” in series [3] (1% Asc-Pal, without drug); “Gel” in series [3] (2% Asc-Pal, with dex (2 mg)); “weak” in series [3] (2% Asc-Pal, without drug); “Gel” in series [3] (3% Asc-Pal, with dex (2 mg)); “Gel” in series [3] (3% Asc-Pal, without drug). The Gelation result in series [3] (4% Asc-Pal, with dex (2 mg)) is listed as “Gel”; in series [3] (4% Asc-Pal, without drug) it was “Gel”; in series [3] (5% Asc-Pal, with dex (2 mg)), “Gel”; in series [3] (5% Asc-Pal, without drug) it was “Gel”.

With `CC[C@@]1(O)C(=O)OCc2c1cc1n(c2=O)Cc2cc3ccccc3nc2-1` [Camptothecin], the IC50 in series [4] is 3.9 nM; in series [5], 30 nM.

With `CCCCCCCCCCCCCCCCCC(=O)OC[C@@H](O)[C@H]1OC[C@H](O)[C@H]1O` [Sorbitane Monostearate, sorbitan monostearate], the Gelation ability entry in series [6] (Acetone) is “Precipitate”; in series [6] (Acetonitrile (CH3CN)), “Precipitate”; in series [6] (Chloroform), “Soluble”; in series [6] (Dimethyl formamide (DMF)), “Soluble”; in series [6] (Dimethyl sulfoxide (DMSO)), “Gel”; in series [6] (Dioxane), “Soluble”. The Gelation ability entry is “Soluble” in series [6] (Ethanol); “Emulsion” in series [6] (Ethyl acetate); “Gel” in series [6] (Glycerol); “Soluble” in series [6] (Isobutanol); “Soluble” in series [6] (Isopropanol); “Clear Gel” in series [6] (Isopropyl palmitate). The Gelation ability entry in series [6] (Methanol) is on record as “Precipitate”; in series [6] (Mono-ethylene glycol) it was “Weak Gel”; in series [6] (Polyethylene glycol dimethyl acrylate) it was “Increased”; in series [6] (Tetrachloro methane), “Soluble”; in series [6] (Tetrahydrofuran (THF)) it was “Soluble”; in series [6] (Toluene), “Soluble”. The Gelation ability entry in series [6] (Water) was “Gel”; in series [6] (Xylene) it was “Soluble”; in series [6] (n-hexadecane), “Gel”; in series [6] (n-hexane), “Gel”. Besides, the “Minimum Gelation Concentration” value in series [6] (Dimethyl sulfoxide (DMSO)) amounted to 3% Wt/V %; in series [6] (Ethylene glycol), 5% Wt/V %; in series [6] (Isopropyl palmitate) it was 3% Wt/V %; in series [6] (Water), 3% Wt/V %; in series [6] (glycerol) it was 8% Wt/V %; in series [6] (n-hexadecane), 2% Wt/V %. The “Minimum Gelation Concentration” value in series [6] (n-hexane) was determined as 4% Wt/V %. For the same compound, the “Gelation in gelling solvent” value in series [6] (Dimethyl sulfoxide (DMSO) (Table 4-2)), in series [6] (Ethylene glycol (Table 4-2)), in series [6] (Glycerol (Table 4-2)), in series [6] (Isopropyl palmitate (Table 4-2)), in series [6] (Water (Table 4-2)) and in series [6] (n-hexadecane (Table 4-2)) was “Gel” each time. Besides, the “Gelation in gelling solvent” value in series [6] (n-hexane (Table 4-2)) is recorded as “Gel”. Further, the “Minimum gelation concentrations (MGC)” value in series [6] (across different solvents) lay within 3 to 8 wt/v %.

Source of the values: patent US11672864B2, “Nanostructured gels capable of controlled release of encapsulated agents” (The Brigham and Women's Hospital, Inc., priority 2010, dated 2023).
